# Laboratory results published in paper PMC4072668, “Mass Spectrometric Detection and Characterization of Atypical Membrane-Bound Zinc-Sensitive Phosphatases Modulating GABAA Receptors” (PLoS ONE, 2014).
# Experiments:
# [1] = test system: membrane-bound phosphatase activities of washed cortical membrane; assay: LC-MS/MS phosphatase assay with effectors, N-terminal phosphopeptide pI2α1N-P as substrate; type: biochemical
# Description: (§1) Phosphatasic activity of bovine, rat and human washed cortical membranes was measured by using synthetic phosphopeptides as substrates. Reactions were performed in presence of 50 µg/ml (total proteins) of washed cortical membrane, 10 mM Hepes-Tris pH 7.4 and 1 mM MgCl2. Enzymatic reactions were initiated by adding 10 µM of phosphopeptide incubated for 10 min at 30°C and stopped by adding ice-cold acetic acid at a final concentration of 10% (w/v). Following a 800 g centrifugation during 10 min at 4°C, the supernatants were analyzed by LC-MS/MS. […] For these reasons, and to avoid micro-capillary column obstruction we have preferentially used the micro-LC column to characterize the pharmacological profile of phosphatasic activities.
# Quantification of appearance of the native peptide and disappearance of the phosphopeptide in different conditions was performed using the calibration curve plotted using the Xcalibur software (P/N 64018-XCALI version 1.3). The calibration curve and linear regression were constructed using a series of standards, native and phosphorylated equimolar mixture, N- or C-terminal peptides at different concentrations 0.5, 1, 2, 5 and 10 µM (n = 2) in 10 mM Hepes pH 7.4, 1 mM Mg^2+ and 10% acetic acid, which was the same milieu condition as in the phosphatase assay after stopping reactions. The linear regression represents peak area of MS/MS chromatogram spectra depending on the peptide concentration (Figure S1).
# Different effectors were tested by addition to the incubation medium at variable concentration: the dicationic ions Mg^2+, Ca^2+, Zn^2+ were used as chloride, the polycation spermine as hydrochloride, the anion F^− as sodium fluoride (NaF), and the inhibitors of some known phosphatases okadaic acid and the two (+/−) enantiomers of p–bromotetramisole oxalate (p-Br-t). For the inhibitory effects, relative 50% inhibition concentration (IC50) values were either determined graphically with a log-scale for the concentration axis or by the ‘log (inhibitor) vs. response’ nonlinear fit of Prism 5 software (GraphPad), considering activity in the absence of inhibitor as 100%.
# Figure 4 Effects of various inhibitors on the membrane-bound phosphatase activities. […] Incubations were performed at 30°C during 10 min. The activities are expressed as a percentage of that of control samples without inhibitors. Inhibition profiles of PPase activities by okadaic acid were performed using N-terminal phosphopeptide (A) or C-terminal phosphopeptide (B) as substrate. The data points are means ± SEM of 3 experiments. The red arrows indicate the different IC50. […] Data points are the average ± SEM of duplicate assays. (D) Effect of Ca^2+ ions, fluoride (F^−) and spermine (SPM^4+) on PPase activity using N-terminal phosphopeptide as substrate.
# [2] = test system: membrane-bound phosphatase activities of washed cortical membrane; assay: LC-MS/MS phosphatase assay with effectors, C-terminal phosphopeptide pI2α1C-P as substrate; type: biochemical
# Description: as §1
# Quantification of appearance of the native peptide and disappearance of the phosphopeptide in different conditions was performed using the calibration curve plotted using the Xcalibur software (P/N 64018-XCALI version 1.3). […]
# Figure 4 Effects of various inhibitors on the membrane-bound phosphatase activities. […] The activities are expressed as a percentage of that of control samples without inhibitors. […]
# [3] = test system: GABAA receptor currents in pyramidal neurons; assay: Whole-cell patch clamp, rundown of GABAA currents in acutely dissociated cortical pyramidal neurons; type: cell-based, rat; conditions: 10 µM in the pipette
# Description: Adult Sprague Dawley rats (35–40 days of age) were anesthetized by isoflurane and killed by decapitation. The brains were removed quickly and placed in cold artificial cerebro-spinal fluid (Ringer) containing (in mM) 126 NaCl, 3 KCl, 26 NaHCO3, 1.25 Na2HPO4, 2.5 CaCl2, 1.5 MgCl2, 10 D-glucose, saturated with carbogen gas (O2:CO2, 95:5%) pH 7.4. Cortical neurons were acutely dissociated from 400 µm thick slices by incubation in 3 mg/ml protease-XXIII (Sigma) at 32°C, followed by mechanical dissociation. After washing, the cells were transferred in a solution containing (in mM) 135 NaCl, 3 KCl, 2 CaCl2, 10 Hepes, 1 MgCl2, 7 TEA-Cl, 10 D-glucose, and 1 µM TTX, pH 7.4. Pyramidal neurons were recorded using borosilicate glass pipettes (4–5 MΩ) filled with a solution containing (in mM) 130 CsF, 10 CsCl, 4 NaCl, 0.5 CaCl2, 10 Hepes, 5 EGTA, and 7 Mg-ATP. Okadaic acid at 10 µM was added to this intracellular milieu for specific experiments.
# Whole-cell peak currents induced by GABA (100 µM; fast applications of 1 sec pulses every 3 min) were measured for each application and normalized to the maximal response.
# Figure 5 Effects of okadaic acid on the GABAA current rundown. GABAA currents were measured by whole-cell patch clamp on acutely dissociated cortical pyramidal neurons from Sprague Dawley rats. (A) Micrographs of a patched cell at two different magnifications, showing the rapid application device (left). (B) Rundown in cortical neuron: GABA was applied at a concentration of 100 µM during 1 second every 3 min. […] For each group the plot (Left) is the average of normalized currents. Error bars indicate the SEM.
# [4] = test system: GABAA receptor currents in pyramidal neurons; design: method as in PMID 15342727; conditions: 10 µM in the pipette milieu, four neurons; cited from earlier work
# PP1 = test system: PP1; design: method as in PMID 10617768; conditions: mammalian brain; cited from earlier work
# PP2A = test system: PP2A; design: method as in PMID 10617768; conditions: mammalian brain; cited from earlier work
# PP2B = test system: PP2B; design: method as in PMID 10617768; conditions: mammalian brain; cited from earlier work
# PP4 = test system: PP4; design: method as in PMID 10617768; conditions: mammalian brain; cited from earlier work
# PP5 = test system: PP5; design: method as in PMID 10617768; conditions: mammalian brain; cited from earlier work
# PP6 = test system: PP6; design: method as in PMID 10617768; conditions: mammalian brain; cited from earlier work
# PP2C = test system: PP2C; design: method as in PMID 10617768; conditions: up to 1–10 µM; cited from earlier work
# PTP = test system: PTP; design: method as in PMID 10617768; conditions: up to 1–10 µM; cited from earlier work
# PP7 = test system: PP7; design: method as in PMID 10617768; conditions: up to 1–10 µM; cited from earlier work
# acid phosphatase = test system: acid phosphatase; design: method as in PMID 10617768; conditions: up to 1–10 µM; cited from earlier work
# alkaline phosphatase = test system: alkaline phosphatase; design: method as in PMID 10617768; conditions: up to 1–10 µM; cited from earlier work
smiles,measurement,setting,value
"C=C1[C@@H](O)[C@@H]2O[C@]3(CC[C@H](/C=C/[C@@H](C)[C@@H]4CC(C)=C[C@@]5(O[C@H](C[C@@](C)(O)C(=O)O)CC[C@H]5O)O4)O3)CC[C@H]2O[C@@H]1[C@@H](O)C[C@H](C)[C@H]1O[C@@]2(CCCCO2)CC[C@H]1C [okadaic acid, Okadaic acid]",inhibition of membrane-bound phosphatases,"[1]; 300 nM, substrate pI2α1N-P",completely inhibits
same,inhibition of phosphatasic activities by the phosphopeptide method,"[1]; 10 µM, substrate not specified",inhibited most phosphatasic activities
same,IC50,"[1]; substrate pI2α1N-P, read-out: apparent IC50, high affinity (H)",0.15 nM
same,IC50,"[1]; substrate pI2α1N-P, read-out: apparent IC50, low affinity (L)",5 nM
same,inhibition of membrane-bound phosphatases,[2]; 300 nM,completely inhibits
same,IC50,"[2]; only one affinity, read-out: apparent IC50",0.18 nM
same,GABAA current rundown in some cells,[3],rundown could be abolished
same,"GABAA current rundown, 'Very Rapid' group of neurons vs control","[3]; n = 5, Dunnett's test Ns",not sensitive to okadaic acid
same,"GABAA current rundown, 'Mid Rapid', 'Mid Slow' and 'Very Slow' groups of neurons vs control","[3]; p<0.01 Mid Rapid, p<0.0001 Mid Slow and Very Slow",statistically different from the control
same,effect on the GABAA current rundown,[4],variable effect
same,IC50,PP1,270 nM
same,IC50,PP2A,2 nM
same,IC50,PP2B,3600 nM
same,IC50,PP4,0.2 nM
same,IC50,PP5,1.4 to 10 nM
same,IC50,PP6,2 nM
same,inhibition,PP2C,not inhibited
same,inhibition,PTP,not inhibited
same,inhibition,PP7,not inhibited
same,inhibition,acid phosphatase,not inhibited
same,inhibition,alkaline phosphatase,not inhibited
